We go through 17 molecules from patent US5756504A, “Tocolytic oxytocin receptor antagonists” (priority 1996, dated 1998).

Like-named read-outs stand apart in the source and are kept apart here.

The conditions of series [1]: compared with ritodrine; cited from earlier work.
Series [2] addresses T1, oxytocin receptor ([^3 H]OT binding, uterine tissue) (Rattus norvegicus, UniProt P70536).
T1 construct: tissue Taconic Farms, Germantown, N.Y. (animals); host or cells: uterus of nonpregnant adult Sprague-Dawley rats pretreated with diethylstilbestrol propionate, crude membranes
T1 sequence (P70536 1-388): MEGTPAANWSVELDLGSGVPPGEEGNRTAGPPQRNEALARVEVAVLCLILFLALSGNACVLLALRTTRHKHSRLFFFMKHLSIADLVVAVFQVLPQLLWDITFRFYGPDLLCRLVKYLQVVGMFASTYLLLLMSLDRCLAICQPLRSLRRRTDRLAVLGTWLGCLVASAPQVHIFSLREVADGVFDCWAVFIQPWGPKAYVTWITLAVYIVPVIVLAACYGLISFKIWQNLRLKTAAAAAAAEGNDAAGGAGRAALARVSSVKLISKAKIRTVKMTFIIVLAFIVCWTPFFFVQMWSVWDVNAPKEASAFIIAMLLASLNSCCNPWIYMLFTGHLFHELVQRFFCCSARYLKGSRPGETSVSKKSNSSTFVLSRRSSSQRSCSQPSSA
Put plainly: [3H]oxytocin radioligand binding competition assay, rat uterus. Details: species or system rat (Sprague-Dawley). The protocol:
RADIOLIGAND BINDING ASSAYS
Ther., 256(1): 304-308 (1991)]. Uterine tissue was taken from nonpregnant adult Sprague-Dawley rats (Taconic Farms, Germantown, N.Y.) pretreated (18-24 h) with diethylstilbestrol propionate (DES; 300 μg/kg, i.p.). Uterine tissue (full thickness) was also taken with informed consent from nonlabor pregnant women undergoing cesarean section at 38 to 39 weeks gestation (Oregon Health Sciences Center, Portland, Oreg.). Liver and kidney medulla samples were taken from male rats and from human surgical and early postmortem donors (National Disease Research Interchange, Philadelphia Pa.; Analytical Biological Services, Wilmington, Del.).
Nonspecific binding was determined using 1 μM unlabeled OT or AVP in their respective assays. The binding reactions were initiated by the addition of tissue preparation and terminated by filtration using a Skatron cell harvester (model 7019, Skatron, Inc., Sterling, Va.). […] The final protein concentration for the various tissues in each assay ranged from 150 to 300 μg/ml [Lowry, P. H.; Rosebrough, N. J.; Farr, A. L.; Randall, R. J.; J. Biol. Chem., 193:265-275 (1951)].
Data is either reported as a given percentage of inhibition at a specified concentration,or if an IC50 was calculated, as a nanomolar concentration.

For series [3] the following is noted: cited from earlier work.
A further series concerns uterus. Put plainly: uterine contraction in situ in nonpregnant rat. In kind it is in vivo, rat (Sprague-Dawley). As to conditions: i.v., DES-pretreated anesthetized rats. On the procedure:
2. OT antagonist activity in the nonpregnant rat
The procedure for measuring isometric contraction of the uterus in situ was adapted from that of Chan et al. [1974] as previously described [Pettibone et al., 1989]. Sprague-Dawley rats (200-300 g, Taconic Farms, Germantown, N.Y.) pretreated with DES (0.25 mg/kg, i.p.; 18 h) were anesthetized with urethane (1.75 g/kg, i.p.), a tracheal cannula was inserted, and a femoral vein was cannulated. The left uterine horn was exposed, and the anterior part of the horn was secured with surgical silk to an anchor post. A second ligature about 3 cm posterior to the first tie was connected to a force transducer and maintained at a tension of 1 g. Signals from the transducer were amplified and recorded. The contractile response of the uterus to OT was quantified by computerized measurement of the area under the contraction-time curve for a 10-min period immediately after the injection of OT. The following protocol was adopted for most experiments. […] The contractile response obtained from the third injection was set as 100%. Areas determined after each injection was expressed as a percentage of the area obtained for the third injection. […] The dose of test compound required to reduce the response to OT by 50% (AD50) was calculated from the contractile areas obtained after the fourth injection of OT (i.e., 5 min postinfusion of test compound). […]

Regarding `CCO` [Ethanol], in series [1], the “effectiveness in preventing premature labor” value is “as effective as ritodrine in preventing premature labor” and the “reduction in incidence of fetal respiratory distress” value was “does not produce a corresponding reduction in the incidence of fetal respiratory distress”.
In series [2], `COc1ccc(CC(=O)N2CCC3(C=Cc4ccccc43)CC2)c(OC)c1` [Example 1, 1'-(2,4-Dimethoxyphenylacetyl)-spiro[1H]indene-1,4'-piperidine] returned an IC50 of 400 nM.
On to `O=C(Nc1ccc(CC(=O)N2CCC3(C=Cc4ccccc43)CC2c2ccccc2)cc1)c1ccc2[nH]cnc2c1` (stereo not drawn) [Example 2, 1'-(4-(Benzimidazole-5-carboxylamino)phenylacetyl)-2'-phenylspiro[1H]indene-1,4'-piperidine], for which the IC50 in series [2] is 120 nM.
In series [2], `O=C(Nc1ccc(CC(=O)N2CCC3(C=Cc4ccccc43)CC2)cc1)c1ccc2cc[nH]c2c1` [Example 4, 1'-(4-(Indole-6-carboxylamino)phenylacetyl)spiro[1H]indene-1,4'-piperidine] came in with a concentration for half-maximal inhibition (IC50) of 1600 nM.
`COc1ccc(CC(=O)N2CCN(c3ccccc3C)CC2)c(OC)c1` [Example 6, 1-(2,4-Dimethoxyphenylacetyl)-4-(2-methylphenyl)piperazine]: in series [2], the half-maximal inhibitory concentration (IC50) worked out at 540 nM.
The same measure, in the same setting: the result for `COc1ccc(CC(=O)N2CCN(c3ccccc3C)CC2C(N)=O)c(OC)c1` (stereo not drawn) [Example 7, 1-(2,4-Dimethoxyphenylacetyl)-4-(2-methylphenyl)piperazine-2-carboxamide] reads 80 nM.
The same measure, in the same setting: as for `Cc1ccccc1N1CCN(C(=O)Cc2ccc(NC(=O)c3ccc4[nH]cnc4c3)cc2)C(C(N)=O)C1` (stereo not drawn) [Example 8, 1-(4-(Benzimidazol-5-carboxylamino)phenylacetyl)-4-(2-methylphenyl)piperazine-2-carboxamide], the figure is 30 nM; as for `COc1cc(OC2CCN(C(C)=O)CC2)ccc1CC(=O)N1CCN(c2ccccc2C)CC1C(N)=O` (stereo not drawn) [Example 9, 1-(2-Methoxy-4-(1-acetyl-4-piperidyloxy)phenylacetyl)-4-(2-methylphenyl)piperazine-2-carboxamide], 34 nM.
For the molecule `CCN(CC)CCS(=O)(=O)N1CCC(Oc2ccc(CC(=O)N3CCN(c4ccccc4C)CC3C(N)=O)c(OC)c2)CC1` (stereo not drawn) [Example 11, 1-(2-Methoxy-4-(1-(2-(N,N-Diethylamino)ethylsulfonyl)-4-piperidyloxy)phenylacetyl)-4-(2-methylphenyl)piperazine-2-carboxamide], in series [2], the IC50 was determined as 21 nM.
In turn, `COc1cc(OC2CCN(S(=O)(=O)CCNC3CC3)CC2)ccc1CC(=O)N1CCN(c2ccccc2C)CC1C(N)=O` (stereo not drawn) [Example 12, 1-(2-Methoxy-4-(1-(2-(N-cyclopropylamino)-ethylsulfonyl)-4-piperidyloxy)phenylacetyl)-4-(2-methylphenyl)piperazine-2-carboxamide] showed an IC50 in series [2] of 20 nM.
For the molecule `COc1cc(OC2CCN(c3c(O)c(=O)c3=O)CC2)ccc1CC(=O)N1CCN(c2ccccc2C)CC1C(N)=O` (stereo not drawn) [Example 14, 1-(2-Methoxy-4-(1-(3-hydroxy-3-cyclobutene-1,2-dion-4-y)-4-piperidyloxy)phenylacetyl)-4-(2-methylphenyl)piperazine-2-carboxamide], the IC50 in series [2] (read-out: Result For [^3 H]OT (IC50), rat uterus membranes, 1 nM [^3 H]OT) came out at 24 nM.
In turn, `COc1cc(OC2CCN(Cc3cccnc3)CC2)ccc1CC(=O)N1CCN(c2ccccc2C)CC1C(N)=O` (stereo not drawn) [Example 15, 1-(2-Methoxy-4-(-1-((pyrid-3-yl)methyl)-4-piperidyloxy)phenylacetyl)-4-(2-methylphenyl) piperazine-2-carboxamide] showed an IC50 in series [2] of 28 nM.
As to `O=S(=O)([O-])[O-].[Mg+2]` [Magnesium sulfate], the “toxicity above therapeutic plasma range” value in series [3] (plasma concentrations above 4 to 8 mg/dL) is “can cause inhibition of cardiac conduction and neuromuscular transmission, respiratory depression and cardiac arrest”.
In the case of `CC[C@H](C)[C@@H]1NC(=O)[C@H](Cc2ccc(O)cc2)NC(=O)[C@@H](N)CSSC[C@@H](C(=O)N2CCC[C@H]2C(=O)N[C@@H](CC(C)C)C(=O)NCC(N)=O)NC(=O)[C@H](CC(N)=O)NC(=O)[C@H](CCC(N)=O)NC1=O` [OT, oxytocin], the “ED50 dose of OT (uterine contraction)” value in the series on uterus is roughly 1 µg/kg.
With `CC(NCCc1ccc(O)cc1)C(O)c1ccc(O)cc1` (stereo not drawn) [Ritodrine], the side effects entry in series [3] (tocolytic use, in the mother) was “causes a number of cardiovascular and metabolic side effects in the mother, including tachycardia, increased renin secretion, hyperglycemia (and reactive hypoglycemia in the infant)”.
Consider `CC(C)(C)NCC(O)c1ccc(O)c(CO)c1` (stereo not drawn) [albuterol], for which, in series [3] (in vivo), the side effects result is “side effects similar to those of ritodrine”.
Turning to `CC(C)(C)NCC(O)c1cc(O)cc(O)c1` (stereo not drawn) [terbutaline], the side effects result in series [3] (tocolytic use, in the mother) is recorded as “side effects similar to those of ritodrine”.
